The NIST ThermoML archive (doi:10.1016/j.jct.2018.02.017)

Key:
[1] = Molar enthalpy of transition or fusion; conditions: DSC
[2] = for Triple point temperature: DSC; for mass density: 100 kPa, Liquid, Vibrating tube method
[3] = mn = molality of the nth substance listed, in mol/kg; conditions: 298.15 K, 100 kPa, Liquid, Falling or rolling sphere viscometry
[4] = xn = mol fraction of the nth substance listed; conditions: 100 kPa, Liquid, Vibrating tube method
[5] = excess molar enthalpy (molar enthalpy of mixing); xn = mol fraction of the nth substance listed; conditions: 100 kPa, Liquid, Flow calorimetry

CCCC[N+]1(C)CCCC1.O=S(=O)([O-])C(F)(F)C(F)F
Conditions | Molar enthalpy of transition or fusion, [1] [kcal/mol] | Triple point temperature, [2] [K]
Crystal 1 | 2.61 | 318.5
Crystal 2 | 3.01 | 279.3

CCCCn1cc[n+](C)c1.O=S(=O)([O-])C(F)(F)C(F)F
[2]
Conditions | mass density [kg/m3]
288.15 K | 1355.49
293.15 K | 1351.46
298.15 K | 1347.31
303.15 K | 1343.19
308.15 K | 1339.08
313.15 K | 1335.01
318.15 K | 1330.9
323.15 K | 1326.84
328.15 K | 1322.8
333.15 K | 1318.77

CCCC[N+]1(C)CCCC1.O=S(=O)([O-])C(F)(F)C(F)F + O
[3]
Conditions | viscosity [mPa·s]
m1 = 0.01177 | 0.8996
m1 = 0.02018 | 0.9033
m1 = 0.02912 | 0.9095
m1 = 0.05104 | 0.9233
m1 = 0.07113 | 0.934
m1 = 0.09124 | 0.9463

CCCCn1cc[n+](C)c1.O=S(=O)([O-])C(F)(F)C(F)F + O
[3]
Conditions | viscosity [mPa·s]
m1 = 0.0216 | 0.9005
m1 = 0.02818 | 0.9042
m1 = 0.05086 | 0.9161
m1 = 0.06272 | 0.9229
m1 = 0.0705 | 0.9269
m1 = 0.0811 | 0.9328

CCCC[N+]1(C)CCCC1.N#CN=C=[N-] [1-butyl-1-methylpyrrolidinium dicyanamide]
[2]
Conditions | mass density [kg/m3]
288.15 K | 1019.08
293.15 K | 1016.25
298.15 K | 1013.43
303.15 K | 1010.62
308.15 K | 1007.83
313.15 K | 1005.05
318.15 K | 1002.29

CCCC[N+]1(C)CCCC1.N#CN=C=[N-] [1-butyl-1-methylpyrrolidinium dicyanamide] + O
Conditions | excess molar enthalpy, [5] [kcal/mol] | mass density, [4] [kg/m3]
288.15 K, x1 = 0.000366 | -0.00048 | 999.262
288.15 K, x1 = 0.000732 | -0.000918 | 999.415
288.15 K, x1 = 0.001097 | -0.00134 | 999.558
288.15 K, x1 = 0.001462 | -0.00175 | 999.693
288.15 K, x1 = 0.001827 | -0.00212 | 999.827
288.15 K, x1 = 0.002192 | – | 999.945
298.15 K, x1 = 0.000366 | -0.00027 | 997.161
298.15 K, x1 = 0.000732 | -0.000516 | 997.266
298.15 K, x1 = 0.001098 | -0.000743 | 997.365
298.15 K, x1 = 0.001463 | -0.000963 | 997.458
298.15 K, x1 = 0.001828 | -0.00117 | 997.547
298.15 K, x1 = 0.002193 | -0.00138 | 997.632
308.15 K, x1 = 0.000366 | -6.21e-05 | 994.108
308.15 K, x1 = 0.000731 | -0.0001 | 994.175
308.15 K, x1 = 0.001097 | -0.000127 | 994.237
308.15 K, x1 = 0.001462 | -0.00016 | 994.294
308.15 K, x1 = 0.001827 | -0.000201 | 994.349
308.15 K, x1 = 0.002192 | -0.00022 | 994.4
318.15 K, x1 = 0.000366 | 0.000141 | 990.258
318.15 K, x1 = 0.000731 | 0.000301 | 990.295
318.15 K, x1 = 0.001097 | 0.000471 | 990.326
318.15 K, x1 = 0.001462 | 0.000643 | 990.353
318.15 K, x1 = 0.001826 | 0.00082 | 990.377
318.15 K, x1 = 0.002192 | 0.000997 | 990.398

[3]
Conditions | viscosity [mPa·s]
m1 = 0.01007 | 0.8956
m1 = 0.01538 | 0.8983
m1 = 0.03088 | 0.9043
m1 = 0.04839 | 0.9119
m1 = 0.0703 | 0.921
m1 = 0.09073 | 0.9308
